Laboratory results: paper PMC5749684, “Tetrahydrocarbazoles are a novel class of potent P-type ATPase inhibitors with antifungal activity” (PLoS ONE, 2018)

Legend:
[1] = system: yeasts Saccharomyces cerevisiae, Candida albicans, Candida krusei and Candida glabrata; assay: Fungal growth inhibition; assay type: cell-based; settings: species not given; for MIC: antifungal activity
Description: Fungal isolates were purchased from American Type Culture Collection, except for C. glabrata strain Cg003, which was kindly provided by Julius Subik, Comenius University in Bratislava, Slovak Republic. Cg003 is a clinical isolate, characterized to be resistant to fluconazole and itraconazole due to overexpression of the multidrug resistance efflux pumps Cdr1p and Cdr2p. Saccharomyces cerevisiae (ATCC 9763), Candida albicans (ATCC 90028), Candida albicans (SC5314), Candida glabrata (ATCC 90030), Candida glabrata (Cg003) and Candida krusei (ATCC 6258) were grown in Sabouraud broth (40 g/L D-glucose, 10 g/L peptone, pH 5.6) or YPD (10 g/L yeast extract, 20 g/L Bacto-peptone, 20 g/L glucose) medium to mid log phase, aliquoted into 20% (v/v) glycerol and cryopreserved as stocks at -80°C. For each growth assay, cells from these stocks were diluted in sterile water to OD600 = 0.025, which corresponds to a final starting inoculum of 0.5–2.5 x 10^5 CFU/mL. Growth assays were carried out by pipetting 3 μL compound dissolved in DMSO, 100 μL cell suspension and 97 μL 2 x RPMI media (20.8 g/L RPMI-1640 (Sigma-Aldrich catalog number R6504) 330 mM MOPS, 36 g/L glucose) into a microtiter plate and incubating for 24 h at 34°C, followed by OD measurement at 490 nm. The minimum inhibitory concentration (MIC) was defined as 50% growth inhibition of the microorganism as this measurement best represented the antifungal activity of the compounds. Standard errors were typically below 5%.

[2] = system: C. albicans (SC5314) cells; assay: Time-kill assay; assay type: cell-based, Candida albicans; settings: for Reduction in CFU after 3 h exposure: 20 μM, compared to DMSO treated controls; for Fungicidal or fungistatic activity in time-kill (in words): AMB 0.54 μM, VRC 2.8 μM, 6 and 8 20 μM
Experimental: C. albicans (SC5314) cells (1 x 10^5 CFU/mL) were incubated in 10 mL RPMI-1640 media at 30°C with gentle agitation (150 rpm) in the presence of amphotericin B (0.5 μM), voriconazole (2.8 μM) or tetrahydrocarbazole compound (20 μM). At the indicated time points (0, 3, 6, and 24 h), a 100 μL aliquot was removed, serially diluted (10 fold) in saline (0.9% NaCl), and 30 μL aliquots were spread on YPD agar. CFU were counted after incubation at 30°C for 48 h. C. albicans cells treated with DMSO (1%, v/v) served as a control. 50 CFU/mL was selected as the lower limit of quantitation.

C. albicans cells = assay: Post-antifungal effect determination; assay type: cell-based, Candida albicans; settings: 1 h exposure of C. albicans; AMB 0.54 μM, VRC 2.8 μM, 6 and 8 20 μM
Experimental: The post-antifungal effect (PAFE) of antifungal drugs on C. albicans was determined as described by others, with modifications. Briefly, 2 × 10^6 CFU/mL C. albicans cells were incubated in 1 mL RPMI-1640 media for 1 h at 30°C with gentle agitation in the presence of amphotericin B (0.54 μM), voriconazole (2.8 μM) or tetrahydrocarbazole compound (20 μM). Cells were subsequently washed in RPMI media 3 times by centrifugation (3 minutes, 5,000 x g) and finally re-suspended in 1 mL fresh RPMI medium and incubated at 30°C for 24 h. At various time intervals, a 100 μL aliquot was removed, serially diluted (10-fold) in saline (0.9% NaCl), and 30 μL aliquots were spread on YPD agar. The agar plates were incubated at 30°C for 48 h and the number of CFU/mL of culture was determined. C. albicans cells treated with DMSO (1%, v/v) served as a control. The number of CFU/mL obtained at specified time intervals was plotted against time (h) following compound removal. An increase in the CFU/mL of culture signifies growth and multiplication of yeast cells. The duration required for the antifungal drug-treated cells to recover from the inhibitory effect of the drug as indicated by an increase in CFU/mL of culture is defined as the PAFE.

Compound	Antifungal activity (in words) [1]	Reduction in CFU after 3 h exposure [2] [%]	Fungicidal or fungistatic activity in time-kill (in words) [2]	Post-antifungal effect (PAFE) (C. albicans cells) [h]	MIC [1] [µM]
NC1CCCc2c1[nH]c1cc(OC(F)(F)F)ccc21 (stereo not shown) [Compound 4]	weak antifungal activity				
CN1CCC(NC2CCCc3c2[nH]c2cc(OC(F)(F)F)ccc32)CC1 (stereo not shown) [Compound 5]	weak antifungal activity				
FC(F)(F)Oc1ccc2c3c([nH]c2c1)C(NCc1ccc(Cl)cc1)CCC3 (stereo not shown) [Compound 6]		> 99	fungistatic activity after 24 h of incubation	5	
FC(F)(F)Oc1ccc2c3c([nH]c2c1)C(NCCOc1ccc(Cl)cc1)CCC3 (stereo not shown) [Compound 8]		> 99	fungistatic activity after 24 h of incubation	5	
Cn1c2c(c3cc(Cl)ccc31)CCCC2NCc1ccc(-c2ccccc2)cc1 (stereo not shown) [Compound 11]					> 20
CN(Cc1ccc(-c2ccccc2)cc1)C1CCCc2c1[nH]c1ccc(Cl)cc21 (stereo not shown) [Compound 12]					> 20
